Results taken from patent US4000985A, “Azo dyes having a high solubility in petroleum fuels” (Morton-Norwich Products, Inc., priority 1975, dated 1977).

Experiments:
Assay type in all cases: physicochemical
[1] = Dissolution of 58% dye in 42% fuel by warming, cooling to 25° C. (six heating/diesel oils); conditions: 58% by weight dye, warmed, cooled to 25° C.
Protocol: No. 2 Regular Grade Diesel Oil
Each dye-fuel oil mixture was warmed with stirring and then cooled to 25° C.

[2] = Storage solubility in xylene at 20°-25° C. and -10° C.
Protocol: The solutions obtained were stored at 20°-25°C. and at -10° C. Where any separation of dye occurred, the dye content of the remaining solution was determined colorimetrically.

[3] = Physical state of the isolated dye; conditions: for Physical State of Dye: after isolation according to Procedure B
Excerpt: alternatively, the crude liquid dye may be taken up with a volatile solvent and the solvent removed during the drying process to yield a non-volatile liquid colorant.

[4] = Storage solubility in No. 1 and No. 2 Heating Oil at ambient temperature and -10° C.
Protocol: The resultant mixtures were stored at ambient temperatures (20° to 25° C.) and at -10° C. Where any separation of dye occurred, the dye content of the remaining solution was determined colorimetrically.

[5] = Rate and extent of dissolution in No. 1 and No. 2 Heating Oils at 25° C. (colorimetric); conditions: for solubility in fuel oils (in words): No. 1 and No. 2 fuel oils; for dissolution in the heating oils: two minutes contact
Protocol: The solubility properties of each of the dyes of Examples 16-41 were evaluated in the fuels No. 1 and No. 2 Heating Oils, respectively. The procedure was as follows:
Where the dyes are solid dyes, excess of pulverized solid dye, far beyond that which would dissolve, i.e., 30 to 35% dye, was added to the respective oils at 25° C. and agitated at constant speed. Samples were removed at 1, 10 and 20 minute intervals, filtered, and the amount of dissolved dye determined colorimetrically.
The tarry non-solid dyes were charged in proportions of 50-60% dye to 50-40% oil rather than 30-35% used for the solid dyes. In fact, it was very difficult to stir the tarry dye-fuel oil mixture at a dye concentration of 50%. Samples for these dyes were taken after 2 minutes. The longer initial time for the tarry dyes was to permit reasonable contact between solvent and the viscous, condensed dye.

[6] = Dissolution of 58% dye in 42% fuel by warming, cooling to 25° C. (six heating/diesel oils)
[7] = Equilibrium solubility of Solvent Red No. 19 in petroleum fuels (filtrate, colorimetric)
Protocol: Solvent Red No. 19 was subjected to the same solubility test as set forth in Example 14.
In each instance, the precipitated mass was filtered and the dye content of the filtrate was determined colorimetrically.

[8] = No. 1 Heating Oil, 20° C.-25° C. (Table 8)
[9] = No. 2 Heating Oil, 20° C.-25° C. (Table 9)
[10] = No. 1 Heating Oil, 20° C.-25° C. (Table 10)
[11] = No. 1 Heating Oil, -10° C. (Table 10)
[12] = No. 2 Heating Oil, 20° C.-25° C. (Table 11)
[13] = No. 2 Heating Oil, -10° C. (Table 11)

For CCCCC(CC)CNc1ccc2ccccc2c1N=Nc1ccc(N=Nc2ccccc2C)cc1C (centres unmarked) [Example 1], the “behavior of dye-fuel oil mixture on cooling/storage” value (shortened to “behavior … on cooling/storage”) [1] was “completely soluble and remained soluble at temperatures ranging from -10 °C to 25 °C”, the “Solubility (% by Wt.)” value ([2]; 20° C.-25° C. (Table 12)) was “Complete” and the “Solubility (% by Wt.)” value ([2]; -10° C. (Table 12)) was “Complete”. For the same compound, the “Physical State of Dye at 20° C.” value [3] was “Liquid”, the “Physical State of Dye” value ([3]; listed as 38) was “liquid dye” and the “Solubility (% by Wt.)” value [4, 8] was “Complete”. For the same compound, the “Solubility (% by Wt.)” value ([4]; No. 1 Heating Oil, -10° C. (Table 8)) was “Complete”, the “Solubility (% by Wt.)” value [4, 9] was “Complete” and the “Solubility (% by Wt.)” value ([4]; No. 2 Heating Oil, -10° C. (Table 9)) was “Complete”. The “Percent Dissolved” value ([5]; No. 1 Fuel Oil, 20 Minutes, 25° C., aminoazotoluene dyes (Table 6)) was 58.0%, the “Percent Dissolved” value ([5]; No. 1 Fuel Oil, 2 min, aminoazotoluene dyes (Table 6)) was 58.0% and the “solubility in fuel oils (in words)” value [5] was “exceptionally high solubility”. The “Percent Dissolved” value ([5]; No. 2 Fuel Oil, 20 Minutes, 25° C., aminoazotoluene dyes (Table 7)) was 55.3%, the “Percent Dissolved” value ([5]; No. 2 Fuel Oil, 2 min, aminoazotoluene dyes (Table 7)) was 55.3% and the “dissolution in the heating oils” value [5] was “dissolved completely after two minutes contact”.
With CCCCC(CC)CNc1ccc2ccccc2c1N=Nc1cc(C)c(N=Nc2ccccc2C)cc1C (centres unmarked) [Example 4] the “behavior … on cooling/storage” value [1] was “displayed some separation of dye upon lengthy storage”, the “Solubility (% by Wt.)” value ([2]; 20° C.-25° C. (Table 12)) was 50.0 % by Wt and the “Solubility (% by Wt.)” value ([2]; -10° C. (Table 12)) was 25.0 % by Wt. For the same compound, the equilibrium solubilities [6] was “exceeded 25 percent by weight”, the “Physical State of Dye at 20° C.” value [3] was “Liquid” and the “Solubility (% by Wt.)” value [4, 8] was 44.8 % by Wt. The “Solubility (% by Wt.)” value [4, 9] was 44.1 % by Wt.
In the case of CCCCC(CC)COCCCNc1ccc2ccccc2c1N=Nc1ccc(N=Nc2ccccc2)cc1 (centres unmarked) [Example 8], the “behavior … on cooling/storage” value [1] is reported as “completely soluble and remained soluble at temperatures ranging from -10 °C to 25 °C”, the “Solubility (% by Wt.)” value ([2]; 20° C.-25° C. (Table 12)) is reported as “Complete” and the “Solubility (% by Wt.)” value ([2]; -10° C. (Table 12)) is reported as “Complete”. The “Physical State of Dye at 20° C.” value [3] was “Liquid”, the “Physical State of Dye” value ([3]; listed as 27) was “liquid” and the “Solubility (% by Wt.)” value [4, 10] was “Complete”. The “Solubility (% by Wt.)” value [4, 11] was “Complete”, the “Solubility (% by Wt.)” value [4, 12] was “Complete” and the “Solubility (% by Wt.)” value [4, 13] was “Complete”. For the same compound, the “Percent Dissolved” value ([5]; No. 1 Fuel Oil, 20 Minutes, 25° C., aminoazobenzene dyes (Table 4)) was 52.3%, the “Percent Dissolved” value ([5]; No. 1 Fuel Oil, 2 min., aminoazobenzene dyes (Table 4)) was 52.3% and the “solubility in fuel oils (in words)” value [5] was “exceptionally high solubility”. The “Percent Dissolved” value ([5]; No. 2 Fuel Oil, 20 Minutes, 25° C., aminoazobenzene dyes (Table 5)) was 52.3%, the “Percent Dissolved” value ([5]; No. 2 Fuel Oil, 2 min., aminoazobenzene dyes (Table 5)) was 52.3% and the “dissolution in the heating oils” value [5] was “dissolved completely after two minutes contact”.
For CCCCC(CC)COCCCNc1ccc2ccccc2c1N=Nc1ccc(N=Nc2ccccc2)cc1C (centres unmarked) [Example 9], the “behavior … on cooling/storage” value [1] was “displayed some separation of dye upon lengthy storage”, the “Solubility (% by Wt.)” value ([2]; 20° C.-25° C. (Table 12)) was “Complete” and the “Solubility (% by Wt.)” value ([2]; -10° C. (Table 12)) was 38.1 % by Wt. The equilibrium solubilities [6] was “exceeded 25 percent by weight”, the “Physical State of Dye at 20° C.” value [3] was “Tar” and the “Solubility (% by Wt.)” value [4, 10] was 26.6 % by Wt. The “Solubility (% by Wt.)” value [4, 11] was 9.5 % by Wt, the “Solubility (% by Wt.)” value [4, 12] was 28.8 % by Wt and the “Solubility (% by Wt.)” value [4, 13] was 9.5 % by Wt.
In the case of CCCCC(CC)COCCCNc1ccc2ccccc2c1N=Nc1cc(C)c(N=Nc2ccccc2C)cc1C (centres unmarked) [Example 10], the “behavior … on cooling/storage” value [1] is reported as “displayed some separation of dye upon lengthy storage”, the “Solubility (% by Wt.)” value ([2]; 20° C.-25° C. (Table 12)) is reported as 36.3 % by Wt and the “Solubility (% by Wt.)” value ([2]; -10° C. (Table 12)) is reported as 20.8 % by Wt. For the same compound, the equilibrium solubilities [6] was “exceeded 25 percent by weight”, the “Physical State of Dye at 20° C.” value [3] was “Tar” and the “Solubility (% by Wt.)” value [4, 10] was 29.5 % by Wt. The “Solubility (% by Wt.)” value [4, 11] was 19.8 % by Wt, the “Solubility (% by Wt.)” value [4, 12] was 29.7 % by Wt and the “Solubility (% by Wt.)” value [4, 13] was 12.1 % by Wt.
For CCNc1ccc2ccccc2c1N=Nc1ccc(N=Nc2ccccc2)cc1 [Solvent Red No. 19], the “behavior … on cooling/storage” value [1] was “precipitation occurred immediately”, the “% by Weight Soluble (At Equilibrium)” value ([7]; No. 1 Heating Oil) was 2.23 % by Weight and the “% by Weight Soluble (At Equilibrium)” value ([7]; No. 1 Premium Diesel) was 1.89 % by Weight. For the same compound, the “% by Weight Soluble (At Equilibrium)” value ([7]; No. 2 Heating Oil) was 3.41 % by Weight, the “% by Weight Soluble (At Equilibrium)” value ([7]; No. 2 Premium Diesel) was 2.30 % by Weight and the “% by Weight Soluble (At Equilibrium)” value ([7]; No. 2 Regular Diesel) was 2.63 % by Weight. For the same compound, the “% by Weight Soluble (At Equilibrium)” value ([7]; No. 4 Heating Oil) was 5.76 % by Weight.
